Test results from US5219867A, “Platelet aggregation inhibitory agents” (priority 1992, dated 1993).
“Also recorded” adds a separate entry of the source. Structures can show the parent of a compound that is named as a salt. Where two headings read alike, the source gives them in different places.

Tested on: human blood platelets
Assay: In vitro inhibition of ADP-induced human platelet aggregation (platelet-rich plasma, aggregometer)
Assay type: cell-based
Details: for IC50: Homo sapiens, Platelet; for Potency in inhibiting aggregation relative to rac-I: in vitro platelet aggregation
Description: Procedure for Determining In Vitro Platelet Aggregation-Inhibitory Activity. Adenosine diphosphate (ADP) was used to induce platelet aggregation and was utilized as the sodium salt. A 10 mM stock solution was prepared fresh before each use in modified Tyrode's buffer and working dilutions were prepared with modified Tyrode's buffer immediately prior to use. The buffer contained NaCl (137.00 mM), KCl (2.70 mM), NaHCO3 (11.90 mM), NaH2 PO4 H2 O (0.36 mM) and glucose (5.60 mM) in redistilled water. Adjustment to pH 7.4 was effected by addition of 1N HCl.
The blood was transferred into plastic centrifuge tubes containing 3.2% sodium citrate (blood/citrate ratio 8:1) and centrifuged at 120Xg for 15 minutes at 23° C., yielding platelet-rich plasma (PRP); platelet-poor-plasma (PPP) was obtained by centrifugation of citrated whole blood at 1,100Xg for 15 min at 23° C. The platelet count of PRP was determined and adjusted to a final count of 300,000 platelet per mm^3 by dilution with autologous PPP. […] The plasma so obtained was transferred using a 1.0 ml Centaur pipette into a 50 ml polyethylene centrifuge tube. In order to maintain plasma pH in the appropriate range, the air in the tubes are displaced gently (2 minutes) with a 5% (CO2 -95% air (v/v) mixture and the tube capped. The plasma was maintained at 37° C. in a water bath until used in the aggregation experiments.
Assays of platelet aggregation were performed at least in duplicate, using plasma acquired from different donors, employing a method developed by Quintana, et al. (Quintana, et al., Relationships Between the Chemical Constitution of Carbamoylpiperidines and Related Compounds, and Their Inhibition of ADP-Induced Human Blood Platelet Aggregation, Thromb. Res. Vol. 22, Pages 665-680, 1981); Quintana, et al., Effects of Ethanol and of Other Factors on ADP-Induced Aggregation of Human Blood Platelets in Vitro, Thromb. Res., Vol. 20, Pages 405-415, 1980) (cf. Born, Nature, Vol. 194, Pages 927-929, 1962) and Mustard, et al., J. Lab. Clin. Med., Vol. 64, Pages 548-559, 1964).
Initially, in each experiment, 0.45-ml aliquots of PRP were placed in siliconized cuvettes and stirred (1,100 rpm) in the aggregometer at 37° C. to ascertain the absence of spontaneous aggregation. Appropriate ADP solutions (50 μl) were subsequently injected using a Hamilton microliter syringe to determine the minimal concentration eliciting maximal biphasic aggregation. […] In each case, the concentration of ADP so determined was used in eliciting aggregation throughout each specific set of aggregometric evaluations.
0.5 μl of a solution of the evaluant compound in redistilled 95% ethanol was injected into a stirred ([…]) 0.4-ml aliquot of plasma in a siliconized cuvette in the aggregometer-well (37° C). After 15 seconds, the cuvette was transferred to an incubator (also at 37° C.) and the contents held at this temperature, without stirring, until 2 minutes postinjection. The cuvette was then returned to the aggregometer-well, a base-line being recorded for 2 minutes to detect any spontaneous aggregation. At exactly 4 minutes after injection of the evaluant solution, 50 μl of the appropriate ADP solution was injected and aggregation recorded for 5.5 minutes. Evaluants were studied at least 4 different concentrations. Control experiments (ethanol in a final concentration of 0.095% v/v) were performed in conditions parallel with those involving the respective evaluants, and were initiated either 1 minute prior to or 1 minute after the start of experiments employing the test compounds. This permitted injections to be made precisely at the specified times.

SMILES	IC50 (read-out: IC50 (compound concentration which inhibits ADP-induced platelet aggregation by 50%) ± S.E., racemic compounds, ADP-induced) [µM]	IC50 (read-out: Ia50 (compound concentrations affecting 50% inhibition of aggregation) ± S.E., Table II, ADP-induced, n = 5 for (0)I and 6 for all others) [µM]	IC50 (read-out: Ia50 ± S.E. ADP-Induced, table 3, ADP-induced (n = 5-6)) [µM]	Potency in inhibiting aggregation relative to (-)-I (antipode) (ADP as agonist, in vitro) [times]	IC50 (Table II, ADP-induced, n = 5 for (0)I and 6 for all others, read-out: Ia50 (compound concentrations affecting 50% inhibition of aggregation) ± S.E.) [µM]	IC50 (table 3, ADP-induced (n = 5-6), read-out: Ia50 ± S.E. ADP-Induced) [µM]	Activity as a platelet aggregation inhibitor, in words (as compared to racemic (I) / other stereoisomers, listed as (+) enantiomer, dihydrobromide)	Potency in inhibiting aggregation relative to rac-I (dihydrobromide)	Potency in inhibiting aggregation relative to rac-I (listed as (+) enantiomer of Compound I, dihydrobromide)
CCN(CC)C(=O)C1CCCN(Cc2ccc(CN3CCCC(C(=O)N(CC)CC)C3)cc2)C1 (racemic) [Compound I, α-α'-Bis[3-(N,N-diethyl-carbamoyl)piperidino]-p-xylene dihydrobromide]	44.5 ± 12.7	44.5 ± 127	44.5						
CCN(CC)C(=O)C1CCCN(Cc2ccc(CN3CCCC(C(=O)N(CC)CC)C3)cc2)C1 (single isomer, unassigned) [IC, α-α'-Bis(3-N,N-diethylcarbamoyl)piperidino]-p-xylene dihydrobromide]				15	15.3 ± 3.9	15.3 ± 3.9	unexepectedly superior activity; also recorded: possesses most of the therapeutic activity	three times more potent	two to three times more potent
